Consider one compound from patent US20070274907A1 (priority 2004, published 2007).

Data set [1] has as its system squamous cell carcinoma of the lung. To be noted: 10 mg MMC intra-arterially, after 28 to 48 days, 9 patients; cited from earlier work.
Data set [2] relates to bronchogenic carcinoma. To be noted: 39 patients; cited from earlier work.
Data set [3] is described as follows: Toxicokinetic analysis of plasma MMC after pulmonary artery infusion.
The test system of data set [4] is squamous cell carcinoma or adenocarcinoma. To be noted: full series of 4 treatments, 10 mg MMC each, bronchial artery; cited from earlier work.
Data set [5] is described as follows: Mitomycin binding kinetics to magnetically targetable carrier particle. It counts as physicochemical. To be noted: for initial mitomycin remaining in the binding supernatant: 5 minutes, 25 mg carrier, 0.755 mg/mL mitomycin. The method, then:
Mitomycin binding kinetics was measured at room temperature, and 40° C. […] The mixture was incubated at room temperature and at 40° C. for various time periods up to 60 minutes. The concentration of mitomycin remaining in the binding supernatant was obtained by filtering the sample at a predefined time point and then analyzing by HPLC to determine percentage bound.

Data set [6] concerns swine. Kind of data set: 28 day toxicity study, pulmonary artery delivery with magnetic targeting. The method, then: Each animal received a single dose of either control or test article at fixed concentrations by pulmonary artery infusion. […] The vehicle control group received 16 mL of vehicle.
A test article was administered as a single infusion to Groups 1 and 2 and as two infusions in all other groups. A 15 minute magnetic retention period separated the two infusions in Groups 3 and 4. The infusion rate was maintained at a flow rate of 2 mL/min. At the end of the 15 minute magnetic retention period, an angiogram was performed to verify arterial patency in the selected lung lobe. Assessment of toxicity following treatment included laboratory tests in which blood samples were collected for evaluation of serum chemistry, hematology and coagulation parameters prior to dosing (Day 0) and post-dosing on Days 1, 3, 7, 14, 21 and 28.

For orientation: Cmax means the maximum level reached in the sampled fluid or tissue. In general, Vd refers to the apparent volume that relates the amount in the body to the concentration in plasma or blood. For orientation: clearance means the volume of plasma or blood freed of the substance per unit of time. For orientation: half-life means the time in which the quantity being followed falls by half. A high value points to slow decline. `CO[C@@]12[C@H](COC(N)=O)C3=C(C(=O)C(C)=C(N)C3=O)N1C[C@@H]1N[C@@H]12` [MMC, Mitomycin C]: in data set [1], the “complete remission of the tumor, patients” value is recorded as 2 patients and the “partial remission, patients” value is reported as 2 patients. In data set [2], the neurologic complications result was “No neurologic complications occurred” and the side effects result is listed as “insignificant”. In data set [3] (Yorkshire, pig, in vivo, 4 mg), the Cmax was 178 ± 27.1 ng/mL, the Vd was 47.3 ± 13.2 L and the clearance turned out to be 618 ± 54 mL/min. In data set [3] (Yorkshire, pig, in vivo, 4 mg, β or λ t1/2, swine, 4 mg MMC), this compound registered a half-life of 1.12 ± 0.278 h. The compound also came in with a half-life in data set [3] (Yorkshire, swine, in vivo, distribution half-life, swine, summary over dose groups) of about 0.133 h. For the same compound, the half-life in data set [3] (Yorkshire, swine, in vivo, elimination half-life, swine, summary over dose groups) is about 1.08 h. For the same compound, the AUC in data set [3] (swine, 4 mg MMC, pulmonary artery infusion, plasma MMC) was 6507 ± 568 (ng/ml) × min. Moreover, in data set [4], the “patients with a 20% to 50% decrease of the tumor area” value was 3 patients and the “patients with a 50% decrease of the tumor area” value is 5 patients. In addition, the “initial mitomycin remaining in the binding supernatant” value in data set [5] (40° C) is 3%. Besides, in data set [5] (room temperature), the “initial mitomycin remaining in the binding supernatant” value is recorded as 2%. For the same compound, the “time to adsorption equilibrium” value in data set [5] (both room temperature and 40° C) is on record as “less than 5 minutes”. The “stability of mitomycin solution during incubation” value in data set [5] (room temperature and 40° C, up to 60 minutes) is reported as “stable at both temperatures”. Besides, in data set [6] (28 days post-dosing, not dose-related), the stomach ulceration result is given as “stomach ulceration was seen in some animals”. Moreover, in data set [6] (MMC alone group, 4 mg MMC), the clinical signs entry was “transient diarrhea in two animals”. Also, the “embolization (post-treatment angiography)” value in data set [6] (MMC control, 4 mg MMC) is “no embolization”.
